Laboratory results: patent US20210130401A1, “PEPTIDOMIMETIC INHIBITORS OF THE WDR5-MLL INTERACTION” (THE REGENTS OF THE UNIVERSITY OF MICHIGAN, priority 2017, published 2021)
Starred links: 1 amine or outer side, 2 acyl side, 3 side chain; linkers in the order of their positions; H or OH if unused. Positions of bridges follow the written chain, without caps; N, C: chain ends. Non-standard residues stand in square brackets, D forms with d. Residues, ends and D or L forms follow the SMILES beside them. ξ: configuration not given here. *: point of attachment. Orn(2-imidazolinyl) = N[C@@H](CCCNC1=NCCN1)C(=O)O; Arg(NO2) = N=C(NCCC[C@H](N)C(=O)O)N[N+](=O)[O-]; dαMeDab = C[C@](CCN[*:3])(N[*:1])C(=O)[*:2]; Arg(Me2s) = CN=C(NC)NCCC[C@H](N)C(=O)O; d1Nal = N[C@H](Cc1cccc2ccccc12)C(=O)O; Arg(Et) = CCNC(=N)NCCC[C@H](N)C(=O)O; Cit = NC(=O)NCCC[C@H](N)C(=O)O; dCha = N[C@H](CC1CCCCC1)C(=O)O; dPhg = N[C@@H](C(=O)O)c1ccccc1; Imidazol2yl = c1c[nH]c(*)n1; Pyridin(2-yl) = c1ccc(*)nc1; Isobutyryl = CC(C)C(=O)*; Orn = NCCC[C@H](N)C(=O)O; Abu = CC[C@H](N)C(=O)O; Dap = NC[C@H](N)C(=O)O; ξDab = NCCC(N)C(=O)O

The compounds below were run on MOLM-13 leukemia cells carrying MLL-AF9 fusion (assay: cell viability assay (WST-8), MOLM-13). Settings: Homo sapiens, MOLM-13, 96 h, read-out: MOLM-13 IC50 (μM).
Type: cell-based
Description: To assess cell viability, MOLM-13 leukemia cells carrying MLL-AF9 fusion, MV4;11 leukemia cells carrying MLL-AF4 fusion or HL-60 leukemia cells carrying no MLL fusion were seeded 1×10^4 cell/well in 96-well plates and treated with an inhibitor for 4 days at different concentrations, in culture media containing 0.2% DMSO as the final concentration. Cell viability was determined using the WST-8 cell proliferation assay kit (Dojindo Molecular Technologies) according to manufacturer's instructions. Three independent experiments in triplicates were performed.

| SMILES | IC50 [µM] |
| --- | --- |
| CC[C@@H]1NC(=O)C(CCNc2ccccn2)NC(=O)[C@](C)(NC(=O)C(C)C)CCNC(=O)[C@@H](c2ccccc2)NC1=O (stereo partly drawn) [Cpd. No. 11, N-((3R,6S,12R)-6-ethyl-12-methyl-2,5,8,11-tetraoxo-3-phenyl-9-(2-(pyridin-2-ylamino)ethyl)-1,4,7,10-tetraazacyclotetradecan-12-yl)isobutyramide] (Isobutyryl-[dαMeDab][ξDab](Pyridin(2-yl))[Abu][dPhg]; lactam 1-C) | > 10 |
| CC[C@@H]1NC(=O)[C@H](CCCNC2=NCCN2)NC(=O)[C@](C)(NC(=O)C(C)C)CCNC(=O)[C@@H](CC2CCCCC2)NC1=O [Cpd. No. 30, N-((3R,6S,9S,12R)-3-(cyclohexylmethyl)-9-(3-((4,5-dihydro-1H-imidazol-2-yl)amino)propyl)-6-ethyl-12-methyl-2,5,8,11-tetraoxo-1,4,7,10-tetraazacyclotetradecan-12-yl)isobutyramide] (Isobutyryl-[dαMeDab][Orn(2-imidazolinyl)][Abu][dCha]; lactam 1-C) | 0.67 |
| CC[C@@H]1NC(=O)[C@H](CCCNc2ncc[nH]2)NC(=O)[C@](C)(NC(=O)C(C)C)CCNC(=O)[C@@H](c2ccccc2)NC1=O [Cpd. No. 20, N-((3R,6S,9S,12R)-9-(3-((1H-imidazol-2-yl)amino)propyl)-6-ethyl-12-methyl-2,5,8,11-tetraoxo-3-phenyl-1,4,7,10-tetraazacyclotetradecan-12-yl)isobutyramide] (Isobutyryl-[dαMeDab][Orn](Imidazol2yl)[Abu][dPhg]; lactam 1-C) | > 10 |
| CCNC(=N)NCCC[C@@H]1NC(=O)[C@](C)(NC(=O)C(C)C)CCNC(=O)[C@@H](CC2CCCCC2)NC(=O)[C@H](CC)NC1=O [Cpd. No. 45, N-((3R,6S,9S,12R)-3-(cyclohexylmethyl)-6-ethyl-9-(3-(3-ethylguanidino)propyl)-12-methyl-2,5,8,11-tetraoxo-1,4,7,10-tetraazacyclotetradecan-12-yl)isobutyramide] (Isobutyryl-[dαMeDab][Arg(Et)][Abu][dCha]; lactam 1-C) | 3.4 |
| CC[C@@H]1NC(=O)[C@H](CCCNC2=NCC(C)CN2)NC(=O)[C@](C)(NC(=O)C(C)C)CCNC(=O)[C@@H](CC2CCCCC2)NC1=O (stereo partly drawn) [Cpd. No. 97, N-((3R,6S,9S,12R)-3-(cyclohexylmethyl)-6-ethyl-12-methyl-9-(3-((5-methyl-1,4,5,6-tetrahydropyrimidin-2-yl)amino)propyl)-2,5,8,11-tetraoxo-1,4,7,10-tetraazacyclotetradecan-12-yl)isobutyramide] | > 10 |
| CC[C@@H]1NC(=O)[C@H](CCCN/C(=N/C)NC)NC(=O)[C@](C)(NC(=O)C(C)C)CCNC(=O)[C@@H](CC2CCCCC2)NC1=O [Cpd. No. 31, N-((3R,6S,9S,12R)-3-(cyclohexylmethyl)-9-(3-((E)-2,3-dimethylguanidino)propyl)-6-ethyl-12-methyl-2,5,8,11-tetraoxo-1,4,7,10-tetraazacyclotetradecan-12-yl)isobutyramide] (Isobutyryl-[dαMeDab][Arg(Me2s)][Abu][dCha]; lactam 1-C) | > 10 |
| CC[C@@H]1NC(=O)[C@H](CCCNC(=N)N)NC(=O)[C@](C)(NC(=O)C(C)C)CCNC(=O)[C@@H](Cc2cccc3ccccc23)NC1=O [Cpd. No. 58, N-((3R,6S,9S,12R)-6-ethyl-9-(3-guanidinopropyl)-12-methyl-3-(naphthalen-1-ylmethyl)-2,5,8,11-tetraoxo-1,4,7,10-tetraazacyclotetradecan-12-yl)isobutyramide] (Isobutyryl-[dαMeDab]R[Abu][d1Nal]; lactam 1-C) | 2.37 |
| CC[C@@H]1NC(=O)[C@H](CCCNC2=NCC(C)(C)CN2)NC(=O)[C@](C)(NC(=O)C(C)C)CCNC(=O)[C@@H](CC2CCCCC2)NC1=O [Cpd. No. 96, N-((3R,6S,9S,12R)-3-(cyclohexylmethyl)-9-(3-((5,5-dimethyl-1,4,5,6-tetrahydxopyrimidin-2-yl)amino)propyl)-6-ethyl-12-methyl-2,5,8,11-tetraoxo-1,4,7,10-tetraazacyclotetradecan-12-yl)isobutyramide] | > 10 |
| CC[C@@H]1NC(=O)[C@H](CCCN/C(N)=N/CC(F)(F)F)NC(=O)[C@](C)(NC(=O)C(C)C)CCNC(=O)[C@@H](c2ccccc2)NC1=O [Cpd. No. 22, N-((3R,6S,9S,12R)-6-ethyl-12-methyl-2,5,8,11-tetraoxo-3-phenyl-9-(3-((E)-2-(2,2,2-trifluoroethyl)guanidino)propyl)-1,4,7,10-tetraazacyclotetradecan-12-yl)isobutyramide] | > 10 |
| CC[C@@H]1NC(=O)[C@H](CCCNC(=N)NC(C)=O)NC(=O)[C@](C)(NC(=O)C(C)C)CCNC(=O)[C@@H](CC2CCCCC2)NC1=O [Cpd. No. 26, N-((3R,6S,9S,12R)-9-(3-(3-acetylguanidino)propyl)-3-(cyclohexylmethyl)-6-ethyl-12-methyl-2,5,8,11-tetraoxo-1,4,7,10-tetraazacyclotetradecan-12-yl)isobutyramide] (Isobutyryl-[dαMeDab]R(Ac)[Abu][dCha]; lactam 1-C) | 1.02 |
| CC[C@@H]1NC(=O)[C@H](CNc2ccccn2)NC(=O)[C@](C)(NC(=O)C(C)C)CCNC(=O)[C@@H](c2ccccc2)NC1=O [Cpd. No. 10, N-((3R,6S,9S,12R)-6-ethyl-12-methyl-2,5,8,11-tetraoxo-3-phenyl-9-((pyridin-2-ylamino)methyl)-1,4,7,10-tetraazacyclotetradecan-12-yl)isobutyramide] (Isobutyryl-[dαMeDab][Dap](Pyridin(2-yl))[Abu][dPhg]; lactam 1-C) | > 10 |
| CC[C@@H]1NC(=O)[C@H](CCCNC(=N)N)NC(=O)[C@](C)(NC(=O)C(C)C)CCNC(=O)[C@@](C)(c2ccccc2)NC1=O [Cpd. No. 78, N-((3R,6S,9S,12R)-6-ethyl-9-(3-guanidinopropyl)-3,12-dimethyl-2,5,8,11-tetraoxo-3-phenyl-1,4,7,10-tetraazacyclotetradecan-12-yl)isobutyramide] | > 10 |
| CC[C@@H]1NC(=O)[C@H](CCCNC(N)=O)NC(=O)[C@](C)(NC(=O)C(C)C)CCNC(=O)[C@@H](c2ccccc2)NC1=O [Cpd. No. 16, N-((3R,6S,9S,12R)-6-ethyl-12-methyl-2,5,8,11-tetraoxo-3-phenyl-9-(3-ureidopropyl)-1,4,7,10-tetraazacyclotetradecan-12-yl)isobutyramide] (Isobutyryl-[dαMeDab][Cit][Abu][dPhg]; lactam 1-C) | > 10 |
| CC[C@@H]1NC(=O)[C@H](CCCNC(=N)N)NC(=O)[C@](C)(NC(=O)C(C)C)CCNC(=O)[C@@H](c2ccccc2Cl)NC1=O [Cpd. No. 83, N-((3R,6S,9S,12R)-3-(2-chlorophenyl)-6-ethyl-9-(3-guanidinopropyl)-12-methyl-2,5,8,11-tetraoxo-1,4,7,10-tetraazacyclotetradecan-12-yl)isobutyramide] | 2.6 |

Same assay, conditions: Homo sapiens, MOLM-13, 96 h; Table 2A; 4 days treatment; read-out: MOLM-13 IC50

| IC50 [µM] | SMILES |
| --- | --- |
| > 10 | CC[C@@H]1NC(=O)[C@H](CCCNC(=N)N[N+](=O)[O-])NC(=O)[C@](C)(NC(=O)C(C)C)CCNC(=O)[C@@H](CC2CCCCC2)NC1=O [Cpd. No. 32, N-((3R,6S,9S,12R)-3-(cyclohexylmethyl)-6-ethyl-12-methyl-9-(3-(3-nitroguanidino)propyl)-2,5,8,11-tetraoxo-1,4,7,10-tetraazacyclotetradecan-12-yl)isobutyramide] (Isobutyryl-[dαMeDab][Arg(NO2)][Abu][dCha]; lactam 1-C) |
